Values after ≈ are worked out from the molar mass of the structure shown. Values joined by “and” are separate entries in the source; they are usually repeats but may differ in a detail not shown here. Equal entries are not always repeated. Where two headings read alike, the source gives them in different places.
What was measured:
[1] = rats
[2] = test system: SARS-CoV-2 USA_WAI/2020 isolate
Excerpt: Therefore, the goal for the CSF was set to achieve the same exposure conditions as for plasma.

[3] = test system: SARS-CoV-2 USA_WAI/2020 isolate; details: cited from earlier work; for plasma EC90Adjusted concentration: adjusted for plasma protein binding
[4] = cited from earlier work
[5] = cited from earlier work; remark: listed apart in the source
[6] = cited from earlier work; remark: listed apart in the source
[7] = cited from earlier work; remark: listed apart in the source
[8] = set-up: method as in earlier work; details: cited from earlier work
in vivo [9] = details: male, Sprague-Dawley, rat; for Tmax: Average Tmax
in vivo [10] = details: male, Sprague-Dawley, rat, Median (IQR), rats
human neurons [11] = assay: In-vitro drug uptake by human neurons; details: for uptake of NMR by neurons (mean ± SD): 24-h incubation
pericytes [12] = assay: In-vitro drug uptake by human brain pericytes
[13] = test system: Human brain primary astrocytes; assay: In-vitro drug uptake by human brain primary astrocytes
human neurons [14] = test system: human neurons
pericytes [15] = details: human, 24 h, 1000 ng/mL
[16] = rats, oral 30 mg/kg NMR + 10 mg/kg RTV twice daily, 5 days
[17] = rats, oral NMR/RTV twice daily, 5 days
[18] = in the presence or absence of RTV
[19] = RTV alone, 1000 ng/mL, 24-h incubation

With `CC(C)(C)[C@H](NC(=O)C(F)(F)F)C(=O)N1C[C@H]2[C@@H]([C@H]1C(=O)N[C@H](C#N)C[C@@H]1CCNC1=O)C2(C)C` [NMR, nirmatrelvir] the “Cmax_0-5 days Plasma, Median (IQR)” value (all rats) was 2240 (1860–4030) ng/mL, the “%CSF Concentrations ≥ 3xEC90Un_adjusted, Median (IQR)” value (all rats with CSF, 3xEC90 271.5 ng/mL unadjusted for protein binding) was 16 (0 -20.5) % and 16% and the “Cmax_0-5 days Plasma, Geometric mean (Geometric SD factor)” value (excluding rat 7, calculated to compare to clinical data) was 2480 ng/mL. The “CSF Cmax, median” value (rats) was 410 ng/mL, the “% Penetration by Cmax CSF/Plasma, Median (IQR)” value (rats with CSF sampled) was 18.11% and the “Cmax_0-5 days CSF, Median (IQR)” value (rats with CSF sampled) was 410 (200–880) ng/mL. For the same compound, the “CL (NMR clearance), median from final model” value [16] was 0.23 L/h, the “Ka, median from final model” value [16] was 0.51 h⁻¹ and the “K23 (rate constant to CSF from central compartment), median” value [17] was 0.05 h⁻¹. The “Vc (volume central compartment), median” value [17] was 1.05 L, the “Vcsf (volume cerebrospinal fluid compartment), median” value [17] was 3.46 L and the “Brain NMR concentration, Median (IQR)” value [1] was 23.83 (10.94-46.85) ng/g. For the same compound, the “Heart NMR concentration, Median (IQR)” value [1] was 61.72 (24.44-111.5) ng/g, the “Kidney NMR concentration, Median (IQR)” value [1] was 97.84 (43.28-297.3) ng/g and the “Liver NMR concentration, Median (IQR)” value [1] was 110 (35.65-419.5) ng/g. The “Lung NMR concentration, Median (IQR)” value [1] was 67.86 (25.01-111.3) ng/g, the “PBMC NMR concentration, Median (IQR)” value [1] was 61.44 (31.7-345.2) ng/mL and the “brain NMR concentrations compared to 3xEC90” value ([1]; adjusted or unadjusted for protein binding) was “all < 3xEC90 regardless of adjustment for protein binding”. For the same compound, the “3xEC90 PD value for CSF” value [2] was 271.5 ng/mL, the “3xEC90 PD value for plasma and tissue” value [2] was 876 ng/mL and the “3xEC90 plasma protein adjusted in plasma” value [2] was 0.876 mg/L. The “3xEC90 unadjusted in CSF” value [2] was 0.2715 mg/L, the “plasma EC90Adjusted concentration” value ([3]; bronchial epithelial cells infected with USA_WAI/2020 isolate) was 0.292 µg/mL and the “plasma EC90Adjusted concentration” value [3] was 585 nM. For the same compound, the EC90Un_adjusted ([3]; unadjusted for protein binding) was 0.0905 µg/mL (≈ 0.181 µM), the “EC90Un_adjusted for CSF” value ([3]; unadjusted for protein binding) was 0.0905 µg/mL and the “lipophilicity coefficient (LogP)” value [4] was 1.68. The “passive apparent permeability (Papp)” value [5] was 1.76 ×10⁻⁶ cm/s, the “participants with NMR trough concentrations ≥ 3 × EC90” value ([6]; EPIC-HR, FDA review) was 95% and the “NMR Ka reported by others” value [6] was 0.55 h⁻¹. The “half-life for NMR in the presence of RTV in humans” value [6] was 6.05 h, the “healthy human geometric mean AUC0-12 h” value ([6]; healthy volunteers) was 23010 ng·h/mL and the “healthy human geometric mean Cmax” value ([6]; healthy volunteers) was 2210 ng/mL. The “NMR half-life in other oral rat PK studies” value ([7]; 10 mg/kg oral, rat) was 4 h, the “F literature values estimated in rats for NMR” value [7] was 34–50% and the “Tmax in other rodent models, mean” value [7] was 1.5 h. The protein bound [8] was 69%, the Cmax (in vivo [9]) was 2480 ng/mL and the Kp (in vivo [9]; % Penetration by AUC CSF/Plasma, Median (IQR), rats with CSF sampled) was 0.152. The Kp (in vivo [9]; % Penetration by Cmax CSF/Plasma, Median (IQR), rats with CSF sampled) was 0.181, the k el (in vivo [9]; po, 30 mg/kg) was 6.67e-05 s⁻¹ and the AUC (in vivo [9]; po, 30 mg/kg, AUC0-endoftreatment CSF, Median (IQR), rats with CSF sampled) was 17600 ng·h/mL. For the same compound, the AUC (in vivo [9]; po, 30 mg/kg, AUC0-endoftreatment Plasma, Median (IQR), all rats) was 114000 ng·h/mL, the AUC (in vivo [9]; po, 30 mg/kg, AUC0-endoftreatment Plasma, Median (IQR), excluding rat 7) was 128000 ng·h/mL and the AUC (in vivo [9]; po, 30 mg/kg, AUCdaily_average CSF, Median (IQR), rats with CSF sampled) was 3520 ng·h/mL. It also gave an AUC (in vivo [9]; po, 30 mg/kg, AUCdaily_average Plasma, Geometric mean (Geometric SD factor), excluding rat 7, calculated to compare to clinical data) of 20200 ng·h/mL, an AUC (in vivo [9]; po, 30 mg/kg, AUCdaily_average Plasma, Median (IQR), all rats) of 22800 ng·h/mL and an AUC (in vivo [9]; po, 30 mg/kg, AUCdaily_average Plasma, Median (IQR), excluding rat 7) of 25600 ng·h/mL. It also gave a Tmax (in vivo [9]; po, 30 mg/kg, Mean (SD), all rats, calculated to compare to literature values) of 1.84 h, a Tmax (in vivo [9]; po, 30 mg/kg, Median (IQR), all rats) of 1.68 h and a half-life (in vivo [9]; po, 30 mg/kg, Half-life, Median (IQR), all rats, NMR in the presence of RTV) of 2.55 h. It also gave a Kp (in vivo [9]; po, NMR CSF concentrations as % of those in plasma, ratio of Cmax or AUC, oral NMR/RTV twice daily for five days) of 0.15 to 0.18, a Kp (in vivo [10]; AR Brain) of 0.15 and a Kp (in vivo [10]; AR Kidney) of 1.71. For the same compound, the Kp (in vivo [10]; AR Liver) was 2.71, the Kp (in vivo [10]; AR Lung) was 0.89 and the Kp (in vivo [10]; AR PBMC) was 0.998. The “uptake of NMR by neurons (mean ± SD)” value (human neurons [11]; NMR alone, 2200 ng/mL) was 34.7 ng/mL, the “uptake of NMR by neurons (mean ± SD)” value (human neurons [11]; in the presence of RTV (1000 ng/mL), NMR 2200 ng/mL) was 122.8 ± 7.8 ng/mL and the “maximum NMR uptake (uptake/administered)” value (human neurons [11]; neurons in the presence of RTV, 2200 ng/mL administered) was 5.5%. For the same compound, the “uptake of NMR by pericytes” value (pericytes [12]; [18]) was under 2%, the “difference in NMR uptake, NMR alone or with RTV” value (pericytes [12]; pericytes) was “No significant differences” and the “difference in NMR uptake, NMR alone or with RTV” value ([13]; astrocytes) was “No significant differences”. For the same compound, the “uptake of NMR by astrocytes” value [13, 18] was under 2%.

With `CC(C)c1nc(CN(C)C(=O)N[C@H](C(=O)N[C@@H](Cc2ccccc2)C[C@H](O)[C@H](Cc2ccccc2)NC(=O)OCc2cncs2)C(C)C)cs1` [RTV, ritonavir] the “neuronal entry of RTV” value (human neurons [14]) was “moderate”, the “uptake of RTV by pericytes (uptake/administered)” value (pericytes [15]) was 20.2% and the “RTV uptake in pericytes (mean ± SD)” value (pericytes [12]; [19]) was 202.6 ng/mL. The “RTV uptake in astrocytes (mean ± SD)” value [13, 19] was 419.7 ng/mL.

Reference: article PMC11087525 (Scientific Reports, 2024)
